Laboratory results from patent USRE49735E1 (BRISTOL-MYERS SQUIBB COMPANY, priority 2010, dated 2023).
Several values for one entry are separate records, joined by “and”; a condition that tells them apart may be missing. Equal entries are not always repeated.

Target: human mGluR5A (Homo sapiens, UniProt P41594)
Experiment: mGluR5 FLIPR Assay
Format: cell-based
Conditions: positive modulator activity; HEK293 (ZF) cells with human mGluR5A and rat GLAST; Ca++ response to ~EC10 glutamate
Experimental: HEK293 (ZF) cells stably transfected with human mGluR5A (pIRES neo) and the rat glutamate-aspartate transporter (GLAST; pIRES puro) are grown in a monolayer culture at 37° C. in 5% CO2 and fed with Minimum Essential Medium (MEM) supplemented with 10% dialysed fetal bovine serum. 24 hours prior to assay, cells are enzymatically dissociated from the culture flask (Trypsin, 0.25%), spun down (1000 rpm, 3 min), resuspended, and plated on Greiner black clear bottomed PDL-coated 384-well plates at a density of 30 thousand cells/well. […] Plates are incubated in dye at 37° C. in 5% CO2 for 60 minutes prior to delivery of test compounds in assay buffer. Test compounds are incubated with cells in the presence of dye for 10 minutes prior to being read on the FLIPR platform (Molecular Devices). A Ca^++ signal is induced in the assay plates via the delivery of an ˜EC10 concentration of the endogenous agonist 1-glutamate; images are acquired at 1 Hz for 100 seconds post-delivery of agonist stimulus. Positive modulator activity (i.e. the ability of test compounds to increase the Ca^++ response to a sub-maximal concentration of agonist) is normalized to a saturating concentration of a known mGluR5 PAM run in each assay plate. An EC50 concentration of test compounds is derived from 4-parameter logistic curve fits of transformed fluoresence data via proprietary software suite.

Chain of human mGluR5A (P41594 21-1180 isoform P41594-2): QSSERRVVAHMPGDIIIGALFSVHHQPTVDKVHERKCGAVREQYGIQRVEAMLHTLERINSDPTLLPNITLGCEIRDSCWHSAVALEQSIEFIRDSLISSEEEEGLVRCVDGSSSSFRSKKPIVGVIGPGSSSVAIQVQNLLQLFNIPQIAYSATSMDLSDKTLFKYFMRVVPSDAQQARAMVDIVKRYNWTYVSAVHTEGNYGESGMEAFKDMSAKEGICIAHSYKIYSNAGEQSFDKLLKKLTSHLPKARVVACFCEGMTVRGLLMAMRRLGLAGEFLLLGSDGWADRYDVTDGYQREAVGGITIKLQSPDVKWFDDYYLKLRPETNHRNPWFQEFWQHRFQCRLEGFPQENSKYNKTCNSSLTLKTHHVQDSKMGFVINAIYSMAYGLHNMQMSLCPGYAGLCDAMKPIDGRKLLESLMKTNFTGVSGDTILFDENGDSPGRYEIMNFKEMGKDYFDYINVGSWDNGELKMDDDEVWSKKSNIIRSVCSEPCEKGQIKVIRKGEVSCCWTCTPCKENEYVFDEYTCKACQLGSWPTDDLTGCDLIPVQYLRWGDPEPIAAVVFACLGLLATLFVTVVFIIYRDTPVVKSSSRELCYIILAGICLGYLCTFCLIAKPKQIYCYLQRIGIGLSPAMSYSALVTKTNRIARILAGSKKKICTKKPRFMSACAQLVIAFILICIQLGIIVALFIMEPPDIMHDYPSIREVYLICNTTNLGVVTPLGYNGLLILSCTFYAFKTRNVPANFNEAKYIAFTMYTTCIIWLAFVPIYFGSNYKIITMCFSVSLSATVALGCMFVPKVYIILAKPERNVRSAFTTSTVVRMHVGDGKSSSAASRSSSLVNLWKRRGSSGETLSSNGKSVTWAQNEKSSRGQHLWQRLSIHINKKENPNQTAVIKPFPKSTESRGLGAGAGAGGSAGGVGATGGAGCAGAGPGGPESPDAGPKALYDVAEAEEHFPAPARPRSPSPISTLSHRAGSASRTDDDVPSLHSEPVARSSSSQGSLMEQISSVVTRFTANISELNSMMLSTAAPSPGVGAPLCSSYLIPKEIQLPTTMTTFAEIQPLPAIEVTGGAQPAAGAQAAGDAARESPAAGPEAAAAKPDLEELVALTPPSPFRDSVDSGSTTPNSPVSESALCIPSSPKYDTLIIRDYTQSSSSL

Compound	EC50
O=C1N[C@@H](c2cncc(C#Cc3ccccc3)c2)[C@@H](c2cc(Cl)ccc2Cl)O1 (single isomer, unassigned) [Example 328]	> 1 µM
O=C1N[C@H](c2nccc(C#Cc3ccccc3)n2)[C@@H](c2cccc(F)c2)O1 (racemic) [Example 272]	> 1 µM
O=C1N[C@@H](c2cccc(C#Cc3ccccc3)n2)[C@H](c2cccnc2)O1 (single isomer, unassigned) [Example 366]	> 1 µM
O=C1N[C@H](c2cccc(C#Cc3ccccc3)c2)[C@@H](c2ccncc2)O1 [Example 234]	< 0.1 µM and 0.0027 µM
COc1cccc([C@H]2OC(=O)N[C@@H]2c2cccc(C#Cc3cccnc3)c2)c1 [Example 46]	< 0.1 µM
COc1cccc([C@H]2OC(=O)N[C@@H]2c2cccc(C#Cc3ccnc(C)c3)c2)c1 [Example 60, (4R,5R)-5-(3-Methoxyphenyl)-4-(3-((2-methylpyridin-4-yl)ethnyl)phenyl)oxazolidin-2-one]	> 1 µM
C[C@@]1(c2cncc(C#Cc3ncccc3F)c2)NC(=O)O[C@H]1c1ccc(F)cc1 (single isomer, unassigned) [Example 343]	> 1 µM
O=C1N[C@@H](c2cccc(C#Cc3ccccc3)c2)[C@H](c2cccs2)O1 (racemic) [Example 103, trans-4-(3-(phenylethynyl)phenyl)-5-(thiophen-2-yl)oxazolidin-2-one]	< 0.1 µM
O=C1N[C@H](c2cccc(C#Cc3ccccc3)c2)[C@@H](c2nc(-c3ccccc3)no2)O1 [Example 158]	> 30 µM
O=C1N[C@H](c2cncc(C#Cc3cc(Cl)cc(Cl)c3)c2)[C@@H](c2cc(F)ccc2F)O1 [Example 389, (4R,5R)-4-(5-((3,5-Dichlorophenyl)ethynyl)pyridin-3-yl)-5-(2,5-difluorophenyl)oxazolidin-2-one]	> 1 µM
O=C1N[C@@H](c2cccc(C#Cc3cccnc3)n2)[C@H](c2ccccc2)O1 (single isomer, unassigned) [Example 27]	> 1 µM
O=C1N[C@@H](c2cncc(C#Cc3ccccc3)c2)[C@@H](c2cccc(Cl)c2Cl)O1 (single isomer, unassigned) [Example 332]	> 1 µM
Cc1ccc([C@@H]2OC(=O)N[C@H]2c2cccc(C#Cc3ccccc3)c2)cc1 (racemic) [Example 106, (±)-(phenylethynyl)phenyl)-5-p-tolyloxazolidin-2-one]	< 0.1 µM
O=C1N[C@H](c2cncc(C#Cc3cnccn3)c2)[C@@H](c2c(F)cc(F)cc2F)O1 [Example 295]	> 1 µM
C[C@]1(c2ccc(F)cc2)OC(=O)N[C@@H]1c1cncc(C#Cc2cncc(F)c2)c1 [Example 208]	< 0.1 µM
C[C@@]1(c2cncc(C#Cc3ncccc3F)c2)NC(=O)O[C@H]1c1ccc(F)cc1 (single isomer, unassigned) [Example 344]	< 0.1 µM
O=C1N[C@H](c2cc(C#Cc3cccnc3)cnc2F)[C@@H](c2ccc(F)cc2)O1 [Example 142, (4R,5R)-4-(2-Fluoro-5-(pyridin-3-ylethynyl)pyridin-3-yl)-5-(4-fluorophenyl)oxazolidin-2-one]	< 0.1 µM and 0.0037 µM
O=C1N[C@H](c2cncc(C#Cc3cnccn3)c2)[C@@H](c2ccc(F)cc2)O1 [Example 212]	< 0.1 µM
C[C@@]1(c2ccc(F)cc2)OC(=O)N[C@H]1c1cncc(C#Cc2cncc(F)c2)c1 [Example 207]	> 1 µM
COc1cccc([C@@H]2OC(=O)N[C@H]2c2cccc(C#Cc3ccccc3)n2)c1 (single isomer, unassigned) [Example 6]	> 1 µM
C[C@]1(c2cncc(C#Cc3ccccc3)c2)NC(=O)O[C@@H]1c1ccc(F)cc1 [Example 219]	< 0.1 µM
O=C1N[C@@H](c2cccc(C#Cc3ccccc3)c2)[C@H](c2ccccn2)O1 [Example 232]	> 1 µM
O=C1N[C@H](c2cc(C#Cc3ccc4nccnc4c3)cnc2F)[C@@H](c2ccc(F)cc2)O1 [Example 154, (4R,5R)-4-(2-fluoro-5-(quinoxalin-6-ylethynyl)pyridin-3-yl)-5-(4-fluorophenyl)oxazolidin-2-one]	> 1 µM
COc1cccc([C@H]2OC(=O)N[C@@H]2c2cccc(C#Cc3ccc(F)cc3)n2)c1 [Example 7, (4R,5R)-4-(6-((4-Fluorophenyl)ethynyl)pyridin-2-yl)-5-(3-methoxyphenyl)oxazolidin-2-one]	> 1 µM
O=C1N[C@H](c2cccc(C#Cc3ccccc3)c2)[C@@H](c2ccccc2F)O1 [Example 109, (4R,5R)-5-(2-fluorophenyl)-4-(3-(phenylethynyl)phenyl)oxazolidin-2-one]	< 0.1 µM
COc1ccc(C#Cc2cncc([C@H]3NC(=O)O[C@@H]3c3cc(F)ccc3F)c2)cc1 [Example 382, (4R,5R)-5-(2,5-difluorophenyl)-4-(5-((4-methoxyphenyl)ethynyl)pyridin-3-yl)oxazolidin-2-one]	0.1 to 1 µM and 0.537 µM

Compound	EC50
COc1cccc([C@@H]2OC(=O)N[C@H]2c2cncc(C#Cc3ccccn3)c2)c1 (single isomer, unassigned) [Example 28]	> 1 µM
O=C1N[C@@H](c2cccc(C#Cc3cccc(F)c3)n2)[C@H](c2ccccc2)O1 (single isomer, unassigned) [Example 13]	> 1 µM
COc1cccc([C@H]2OC(=O)N[C@@H]2c2cccc(C#Cc3cccc(OC)n3)c2)c1 [Example 61]	< 0.1 µM
O=C1N[C@H](c2cccc(C#Cc3ncccc3F)n2)[C@@H](c2ccc(F)cc2)O1 (single isomer, unassigned) [Example 370]	< 0.1 µM and 0.0318 µM
O=C1N[C@H](c2cc(C#Cc3cccc(C4CC4)n3)cnc2F)[C@@H](c2ccc(F)cc2)O1 [Example 153, (4R,5R)-4-(5-((6-Cyclopropylpyridin-2-yl)ethynyl)-2-fluoropyridin-3-yl)-5-(4-fluorophenyl)oxazolidin-2-one]	0.1 to 1 µM and 0.188 µM
N#Cc1cccc(C#Cc2cncc([C@H]3NC(=O)O[C@@H]3c3ccc(F)c(F)c3)c2)c1 [Example 176]	< 0.1 µM and 0.0052 µM
COc1cccc([C@H]2OC(=O)N[C@@H]2c2cccc(C#Cc3cnccn3)c2)c1 [Example 63, (4R,5R)-5-(3-Methoxyphenyl)-4-(3-(pyrazin-2-ylethynyl)phenyl)oxazolidin-2-one]	< 0.1 µM
COc1cccc([C@H]2OC(=O)N[C@@H]2c2cccc(C#Cc3ccncn3)c2)c1 [Example 74, (4R,5R)-5-(3-Methoxyphenyl)-4-(3-(pyrimidin-4-ylethynyl)phenyl)oxazolidin-2-one]	> 30 µM
O=C1N[C@H](c2ccnc(C#Cc3ccccc3)n2)[C@@H](c2cccc(F)c2)O1 [Example 275]	< 0.1 µM
COc1cccc([C@H]2OC(=O)N[C@@H]2c2cccc(C#Cc3ccc(SC)cc3)c2)c1 [Example 260]	> 1 µM
O=C1N[C@H](c2cncc(C#Cc3ccccc3)c2)[C@@H](c2cc(F)cc(F)c2)O1 [Example 170]	< 0.1 µM
O=C1NC(c2cccc(C#Cc3ccccc3)c2)C(c2cccc(F)c2)O1 (stereo not shown) [Example 113]	0.1 to 1 µM
COc1cccc([C@H]2OC(=O)N[C@@H]2c2cccc(C#Cc3cccc(C)c3)c2)c1 [Example 54, (4R,5R)-5-(3-Methoxyphenyl)-4-(3-(m-tolylethnyl)phenyl)oxazolidin-2-one]	> 1 µM
O=C1N[C@H](c2cncc(C#Cc3ccnnc3)c2)[C@@H](c2cc(F)ccc2F)O1 [Example 393, (4R,5R)-5-(2,5-difluorophenyl)-4-(5-(pyridazin-4-ylethynyl)pyridin-3-yl)oxazolidin-2-one]	> 1 µM
O=C1N[C@H](c2cccc(C#Cc3ccccc3)n2)[C@@H](c2cc(F)cc(F)c2)O1 (single isomer, unassigned) [Example 315]	> 1 µM
COC(=O)c1ccc(C#Cc2cccc([C@H]3NC(=O)O[C@@H]3c3cccc(OC)c3)c2)cc1 [Example 266]	0.1 to 1 µM
O=C1N[C@H](c2cncc(C#Cc3ccc(F)cc3)c2)[C@@H](c2cc(F)ccc2F)O1 [Example 279]	< 0.1 µM
O=C1N[C@@H](c2cncc(C#Cc3ccccc3)c2)[C@H](c2cccnc2)O1 [Example 199]	> 1 µM
O=C1N[C@@H](c2cccc(C#Cc3ccccc3)c2)[C@H](c2cnccn2)O1 [Example 245]	> 1 µM
O=C1N[C@H](c2cncc(C#Cc3cncc(F)c3)c2)[C@@H](c2ccc(F)cc2)O1 (single isomer, unassigned) [Example 45]	< 0.1 µM and 0.0038 µM
N#Cc1cccc(C#Cc2cncc([C@H]3NC(=O)O[C@@H]3c3cc(F)cc(F)c3)c2)c1 [Example 174]	> 1 µM
O=C1N[C@@H](c2cncc(C#Cc3ccccc3)c2)[C@H](c2cc(Cl)ccc2Cl)O1 (single isomer, unassigned) [Example 325]	> 1.5 µM
Cc1noc([C@@H]2OC(=O)N[C@H]2c2cccc(C#Cc3ccccc3)c2)n1 [Example 167]	> 1 µM
O=C1N[C@H](c2cccc(C#Cc3ccccc3)n2)[C@@H](c2ccc(F)cc2F)O1 (single isomer, unassigned) [Example 309]	< 0.1 µM
O=C1N[C@H](c2cccc(C#Cc3ccccn3)n2)[C@@H](c2ccccc2)O1 (single isomer, unassigned) [Example 24]	> 1 µM
COc1cccc([C@H]2OC(=O)N[C@@H]2c2cccc(C#Cc3ccnc(Cl)c3)c2)c1 [Example 57, (4R,5R)-4-(3-((2-Chloropyridin-4-yl)ethynyl)phenyl)-5-(3-methoxyphenyl)oxazolidin-2-one]	> 30 µM
